# Source: patent US11377442B2, “Small molecule agonists and antagonists of NR2F6 activity” (ZANDER THERAPEUTICS, INC., priority 2016, dated 2022)
# Like-named read-outs stand apart in the source and are kept apart here.
# How the values were obtained:
# Format in all cases: cell-based
# NR2F6 = biological target: T1, NR2F6 (Homo sapiens, UniProt P10588); experiment: NR2F6 agonist screening, Firefly signal cmpd/DMSO
# T1 construct: expressed in transfected cells; also transient transfection
# T1 sequence (P10588 1-404): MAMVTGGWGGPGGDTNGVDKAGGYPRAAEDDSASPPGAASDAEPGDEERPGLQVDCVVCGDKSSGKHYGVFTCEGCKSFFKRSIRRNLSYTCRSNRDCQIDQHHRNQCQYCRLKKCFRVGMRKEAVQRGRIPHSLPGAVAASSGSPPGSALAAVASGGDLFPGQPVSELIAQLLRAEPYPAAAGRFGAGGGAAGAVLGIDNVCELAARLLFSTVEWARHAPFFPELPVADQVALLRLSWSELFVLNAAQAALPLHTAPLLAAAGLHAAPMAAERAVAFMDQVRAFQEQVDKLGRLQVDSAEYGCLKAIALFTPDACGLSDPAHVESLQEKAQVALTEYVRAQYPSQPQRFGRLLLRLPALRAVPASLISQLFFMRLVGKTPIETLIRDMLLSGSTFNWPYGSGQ
# Renilla = Renilla signal in NR2F6 agonist screening, cmpd/DMSO; details: Renilla, F4
# HEK293 pGL4 = experiment: Firefly_pGL signal, cmpd/DMSO (pGL4 control cells); details: Homo sapiens
# NR2F6 LBD = biological target: T2, NR2F6 LBD (Homo sapiens, UniProt P10588); experiment: NR2F6 LBD transient transfection; details: LBD
# T2 construct: expressed in transfected cells
# T2 sequence (P10588 165-393 limits assumed): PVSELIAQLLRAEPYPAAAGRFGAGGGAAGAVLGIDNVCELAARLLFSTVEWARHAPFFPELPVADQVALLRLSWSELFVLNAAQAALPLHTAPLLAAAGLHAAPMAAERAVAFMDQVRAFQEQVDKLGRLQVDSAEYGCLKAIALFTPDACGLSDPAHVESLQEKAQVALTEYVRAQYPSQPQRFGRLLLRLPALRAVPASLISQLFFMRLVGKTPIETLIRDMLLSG
# Summary of the method: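 LBD-transfected cells treated at 40, 10, 2 and 0.5 μM (4 replicates); cytotoxicity measured in parallel, normalized to DMSO (0%) and zero signal (100%). Higher concentrations excluded where signal loss reflected toxicity.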
# [1] = read-out: Renilla, F4, cmpd/DMSO (mean)
# [2] = 1% FBS, read-out: Renilla, F4, 1% FBS, cmpd/DMSO (mean)
# [3] = 10% FBS, read-out: Renilla, F4, 10% FBS, cmpd/DMSO (mean)
# [4] = HEK293, 0.5 uM, pGL4, read-out: Firefly pGL4, cmpd/DMSO (mean)
# [5] = HEK293, 2 uM, pGL4, read-out: Firefly pGL4, cmpd/DMSO (mean)
# [6] = HEK293, 10 uM, pGL4, read-out: Firefly pGL4, cmpd/DMSO (mean)
# [7] = HEK293, 40 uM, pGL4, read-out: Firefly pGL4, cmpd/DMSO (mean)
# [8] = HEK293, pGL4, 1% FBS, 0.5 uM, read-out: Firefly, pGL4, 1% FBS, cmpd/DMSO (mean)
# [9] = HEK293, pGL4, 1% FBS, 2 uM, read-out: Firefly, pGL4, 1% FBS, cmpd/DMSO (mean)
# [10] = HEK293, pGL4, 1% FBS, 10 uM, read-out: Firefly, pGL4, 1% FBS, cmpd/DMSO (mean)
# [11] = HEK293, pGL4, 1% FBS, 40 uM, read-out: Firefly, pGL4, 1% FBS, cmpd/DMSO (mean)
# [12] = HEK293, pGL4, 10% FBS, 0.5 uM, read-out: Firefly, pGL4, 10% FBS, cmpd/DMSO (mean)
# [13] = HEK293, pGL4, 10% FBS, 2 uM, read-out: Firefly, pGL4, 10% FBS, cmpd/DMSO (mean)
# [14] = HEK293, pGL4, 10% FBS, 10 uM, read-out: Firefly, pGL4, 10% FBS, cmpd/DMSO (mean)
# [15] = HEK293, pGL4, 10% FBS, 40 uM, read-out: Firefly, pGL4, 10% FBS, cmpd/DMSO (mean)
smiles,measurement,setting,value
O=S1(=O)C[C@H](NC2CCCCC2)[C@@H](S(=O)(=O)c2ccccc2)C1 [Compound D111],"Firefly F4, cmpd/DMSO (mean)",NR2F6; 0.5 uM,1.1
same,"Firefly F4, cmpd/DMSO (mean)",NR2F6; 2 uM,1.1
same,"Firefly F4, cmpd/DMSO (mean)",NR2F6; 10 uM,2.0
same,"Firefly F4, cmpd/DMSO (mean)",NR2F6; 40 uM,2.7
same,"F4, Firefly/Renilla for S/B(F4) > 3","NR2F6; 10% FBS, 40 uM",2.0
same,"Firefly, F4/pGL4 for S/B(F4) > 3","NR2F6; 10% FBS, 40 uM",2.7
same,"Firefly, F4, 1% FBS, cmpd/DMSO (mean)","NR2F6; 1% FBS, 0.5 uM",1.0
same,"Firefly, F4, 1% FBS, cmpd/DMSO (mean)","NR2F6; 1% FBS, 2 uM",1.1
same,"Firefly, F4, 1% FBS, cmpd/DMSO (mean)","NR2F6; 1% FBS, 10 uM",1.6
same,"Firefly, F4, 1% FBS, cmpd/DMSO (mean)","NR2F6; 1% FBS, 40 uM",2.1
same,"Firefly, F4, 10% FBS, cmpd/DMSO (mean)","NR2F6; 10% FBS, 0.5 uM",1.6
same,"Firefly, F4, 10% FBS, cmpd/DMSO (mean)","NR2F6; 10% FBS, 2 uM",1.6
same,"Firefly, F4, 10% FBS, cmpd/DMSO (mean)","NR2F6; 10% FBS, 10 uM",1.1
same,"Firefly, F4, 10% FBS, cmpd/DMSO (mean)","NR2F6; 10% FBS, 40 uM",3.6
same,fold induction at 0.5 µM,Renilla; [1],1
same,fold induction at 2 µM,Renilla; [1],1
same,fold induction at 10 µM,Renilla; [1],1.1
same,fold induction at 40 µM,Renilla; [1],1.4
same,fold induction at 0.5 µM,Renilla; [2],1.1
same,fold induction at 2 µM,Renilla; [2],1.1
same,fold induction at 10 µM,Renilla; [2],1.3
same,fold induction at 40 µM,Renilla; [2],1.7
same,fold induction at 0.5 µM,Renilla; [3],1.1
same,fold induction at 2 µM,Renilla; [3],1.1
same,fold induction at 10 µM,Renilla; [3],1.2
same,fold induction at 40 µM,Renilla; [3],1.8
same,fold induction at 0.5 µM,HEK293 pGL4; [4],0.9
same,fold induction at 2 µM,HEK293 pGL4; [5],1.4
same,fold induction at 10 µM,HEK293 pGL4; [6],1.5
same,fold induction at 40 µM,HEK293 pGL4; [7],1.8
same,fold induction at 0.5 µM,HEK293 pGL4; [8],1
same,fold induction at 2 µM,HEK293 pGL4; [9],1.2
same,fold induction at 10 µM,HEK293 pGL4; [10],1.2
same,fold induction at 40 µM,HEK293 pGL4; [11],1.2
same,fold induction at 0.5 µM,HEK293 pGL4; [12],1.2
same,fold induction at 2 µM,HEK293 pGL4; [13],1.2
same,fold induction at 10 µM,HEK293 pGL4; [14],1.3
same,fold induction at 40 µM,HEK293 pGL4; [15],1.3
same,"Firefly LBD, cmpd/DMSO (mean)",NR2F6 LBD; 0.5 uM,1.1
same,"Firefly LBD, cmpd/DMSO (mean)",NR2F6 LBD; 2 uM,1.4
same,"Firefly LBD, cmpd/DMSO (mean)",NR2F6 LBD; 10 uM,1.6
same,"Firefly LBD, cmpd/DMSO (mean)",NR2F6 LBD; 40 uM,1.9
O=S1(=O)C[C@H](N2CCCC2)[C@@H](S(=O)(=O)c2ccc(Cl)cc2)C1 [Compound D122],"Firefly F4, cmpd/DMSO (mean)",NR2F6; 0.5 uM,1.6
same,"Firefly F4, cmpd/DMSO (mean)",NR2F6; 2 uM,3.3
same,"Firefly F4, cmpd/DMSO (mean)",NR2F6; 10 uM,6.8
same,"Firefly F4, cmpd/DMSO (mean)",NR2F6; 40 uM,0.7
same,"F4, Firefly/Renilla for S/B(F4) > 3","NR2F6; 1% FBS, 2 uM",2.3
same,"Firefly, F4/pGL4 for S/B(F4) > 3","NR2F6; 1% FBS, 2 uM",1.3
same,"F4, Firefly/Renilla for S/B(F4) > 3","NR2F6; 10% FBS, 10 uM",3.9
same,"Firefly, F4/pGL4 for S/B(F4) > 3","NR2F6; 10% FBS, 10 uM",3.1
same,"Firefly, F4, 1% FBS, cmpd/DMSO (mean)","NR2F6; 1% FBS, 0.5 uM",1.4
same,"Firefly, F4, 1% FBS, cmpd/DMSO (mean)","NR2F6; 1% FBS, 2 uM",3.2
same,"Firefly, F4, 1% FBS, cmpd/DMSO (mean)","NR2F6; 1% FBS, 10 uM",2.8
same,"Firefly, F4, 1% FBS, cmpd/DMSO (mean)","NR2F6; 1% FBS, 40 uM",0.3
same,"Firefly, F4, 10% FBS, cmpd/DMSO (mean)","NR2F6; 10% FBS, 0.5 uM",1.5
same,"Firefly, F4, 10% FBS, cmpd/DMSO (mean)","NR2F6; 10% FBS, 2 uM",1.8
same,"Firefly, F4, 10% FBS, cmpd/DMSO (mean)","NR2F6; 10% FBS, 10 uM",11
same,"Firefly, F4, 10% FBS, cmpd/DMSO (mean)","NR2F6; 10% FBS, 40 uM",0.5
same,"Activity, cmpd/DMSO",NR2F6; Table 31,6.6
same,fold induction at 0.5 µM,Renilla; [1],1.1
same,fold induction at 2 µM,Renilla; [1],1.3
same,fold induction at 10 µM,Renilla; [1],2.2
same,fold induction at 40 µM,Renilla; [1],0.2
same,fold induction at 0.5 µM,Renilla; [2],1.2
same,fold induction at 2 µM,Renilla; [2],1.4
same,fold induction at 10 µM,Renilla; [2],2.2
same,fold induction at 0.5 µM,Renilla; [3],1
same,fold induction at 2 µM,Renilla; [3],1
same,fold induction at 10 µM,Renilla; [3],2.9
same,fold induction at 0.5 µM,HEK293 pGL4; [4],1.3
same,fold induction at 2 µM,HEK293 pGL4; [5],2.4
same,fold induction at 10 µM,HEK293 pGL4; [6],2.3
same,fold induction at 40 µM,HEK293 pGL4; [7],0.6
same,fold induction at 0.5 µM,HEK293 pGL4; [8],1.1
same,fold induction at 2 µM,HEK293 pGL4; [9],2.5
same,fold induction at 10 µM,HEK293 pGL4; [10],2.6
same,fold induction at 40 µM,HEK293 pGL4; [11],0.7
same,fold induction at 0.5 µM,HEK293 pGL4; [12],0.9
same,fold induction at 2 µM,HEK293 pGL4; [13],2.2
same,fold induction at 10 µM,HEK293 pGL4; [14],3.7
same,fold induction at 40 µM,HEK293 pGL4; [15],0.7
same,"Firefly LBD, cmpd/DMSO (mean)",NR2F6 LBD; 0.5 uM,1.2
same,"Firefly LBD, cmpd/DMSO (mean)",NR2F6 LBD; 2 uM,2.5
same,"Firefly LBD, cmpd/DMSO (mean)",NR2F6 LBD; 10 uM,3.1
same,"Firefly LBD, cmpd/DMSO (mean)",NR2F6 LBD; 40 uM,0.6
